Laboratory results: US7632794B1, “Lens care solutions comprising alkyldimonium hydroxypropyl alkylglucosides” (Bausch & Lomb Incorporated, priority 2008, dated 2009)

Test system: five microorganisms tested (three bacterium and two fungal strains)
Test: Biocidal efficacy across the microorganisms tested
Format: cell-based
Conditions: aqueous buffered borate solution
Description: Accordingly, a composition containing as little as 75 ppm of S-1218 and 50 ppm of L-1010P is shown to have very strong biocidal activity against all five microorganisms.

| Substance | biocidal efficacy (in words) |
| --- | --- |
| stearyl dimoniumhydropropyl laurylglucoside | relatively high increase in biocidal efficacy |
| stearyl dimoniumhydropropyl decylglucoside | relatively high increase in biocidal efficacy |
